The results in this text go back to the OligoGym collection.

Oligonucleotides are written 5' to 3', each unit as a sugar letter and its base; * is a phosphorothioate linkage, no mark a phosphodiester; rarer units and linkages stand in square brackets, end groups in braces. Plain capitals give the bases only. d = 2'-deoxy (DNA); r = 2'-OH (RNA)
Further: test concentration or dose not given here.

The first data set deals with UBE2J1. Kind of data set: reporter assay of Huesken 2005. Particulars: siRNA. A general note: A reporter such as luciferase makes a cellular process visible.
For the substance “sense rGrCrCrUrUrUrArArArArUrCrUrGrGrArArGrCdTdT / antisense rGrCrUrUrCrCrArGrArUrUrUrUrArArArGrGrCdAdA”, the normalised inhibition (eCFP-eYFP dual reporter) is 50.4%.

For “sense rCrCrGrArUrUrUrUrGrArUrGrGrArGrGrArGrUdTdT / antisense rArCrUrCrCrUrCrCrArUrCrArArArArUrCrGrGdAdG”, the normalised inhibition (eCFP-eYFP dual reporter) was determined as 48%.

As to “sense rGrCrArGrArArGrUrCrArArUrUrCrArUrCrUrGdTdT / antisense rCrArGrArUrGrArArUrUrGrArCrUrUrCrUrGrCdCdT”, the normalised inhibition (eCFP-eYFP dual reporter) was determined as 54.4%.

With “sense rUrUrCrArCrUrArArCrUrGrArUrUrUrArCrArAdTdT / antisense rUrUrGrUrArArArUrCrArGrUrUrArGrUrGrArAdAdA”, the normalised inhibition (eCFP-eYFP dual reporter) is 67.5%.

With “sense rArUrArUrArUrCrUrGrGrCrArArArCrGrArArUdTdT / antisense rArUrUrCrGrUrUrUrGrCrCrArGrArUrArUrArUdTdC”, the normalised inhibition (eCFP-eYFP dual reporter) stood at 95.9%.

“sense rArUrCrArUrUrArCrCrArUrGrCrGrCrArGrCrCdTdT / antisense rGrGrCrUrGrCrGrCrArUrGrGrUrArArUrGrArUdCdT”: the normalised inhibition (eCFP-eYFP dual reporter) stood at 55.2%.

As to “sense rGrArArGrUrCrArArUrUrCrArUrCrUrGrGrArAdTdT / antisense rUrUrCrCrArGrArUrGrArArUrUrGrArCrUrUrCdTdG”, the normalised inhibition (eCFP-eYFP dual reporter) amounted to 75.3%.

For the substance “sense rGrCrCrArCrCrArGrArGrUrArUrCrCrCrArUrGdTdT / antisense rCrArUrGrGrGrArUrArCrUrCrUrGrGrUrGrGrCdAdG”, the normalised inhibition (eCFP-eYFP dual reporter) stood at 53.6%.

With “sense rUrUrCrCrArGrGrGrUrGrCrUrArCrGrGrCrCrAdTdT / antisense rUrGrGrCrCrGrUrArGrCrArCrCrCrUrGrGrArAdTdG”, the normalised inhibition (eCFP-eYFP dual reporter) is 75.1%.

With “sense rUrArArUrGrGrUrCrGrArUrUrUrGrArArGrUrGdTdT / antisense rCrArCrUrUrCrArArArUrCrGrArCrCrArUrUrAdGdC”, the normalised inhibition (eCFP-eYFP dual reporter) worked out at 46.3%.

As to “sense rUrArUrCrUrGrGrCrArArArCrGrArArUrArCrAdTdT / antisense rUrGrUrArUrUrCrGrUrUrUrGrCrCrArGrArUrAdTdA”, the normalised inhibition (eCFP-eYFP dual reporter) was found to be 91.6%.

“sense rUrUrGrCrCrUrUrUrArArArArUrCrUrGrGrArAdTdT / antisense rUrUrCrCrArGrArUrUrUrUrArArArGrGrCrArAdCdA”: the normalised inhibition (eCFP-eYFP dual reporter) came out at 70.5%.

On to “sense rUrArArCrGrGrCrUrArArUrGrGrUrCrGrArUrUdTdT / antisense rArArUrCrGrArCrCrArUrUrArGrCrCrGrUrUrAdGdG”, for which the normalised inhibition (eCFP-eYFP dual reporter) turned out to be 84%.

For “sense rCrCrGrGrGrCrCrCrArGrCrArGrCrArGrArGrUdTdT / antisense rArCrUrCrUrGrCrUrGrCrUrGrGrGrCrCrCrGrGdCdG”, the normalised inhibition (eCFP-eYFP dual reporter) was 47.4%.

Regarding “sense rArUrCrCrArGrGrGrCrCrArCrCrArGrCrCrArAdTdT / antisense rUrUrGrGrCrUrGrGrUrGrGrCrCrCrUrGrGrArUdTdA”, the normalised inhibition (eCFP-eYFP dual reporter) is 76%.

Another data set addresses UBE2L3. The data set is described as follows: reporter assay of Huesken 2005. The note with it: siRNA.
For the substance “sense rArArCrCrGrArCrCrArArGrUrArArUrCrCrArGdTdT / antisense rCrUrGrGrArUrUrArCrUrUrGrGrUrCrGrGrUrUdTdT”, the normalised inhibition (eCFP-eYFP dual reporter) came out at 66.6%.

Turning to “sense rGrArCrCrUrArGrCrUrGrArArGrArArUrArCrUdTdT / antisense rArGrUrArUrUrCrUrUrCrArGrCrUrArGrGrUrCdAdG”, the normalised inhibition (eCFP-eYFP dual reporter) was determined as 102%.

Regarding “sense rCrCrGrArArGrArUrCrArCrArUrUrUrArArArAdTdT / antisense rUrUrUrUrArArArUrGrUrGrArUrCrUrUrCrGrGdTdG”, the normalised inhibition (eCFP-eYFP dual reporter) came to 83.4%.

As for “sense rCrCrArArGrUrArArUrCrCrArGrUrCrCrCrUrCdTdT / antisense rGrArGrGrGrArCrUrGrGrArUrUrArCrUrUrGrGdTdC”, the normalised inhibition (eCFP-eYFP dual reporter) was 61.4%.

Regarding “sense rCrUrCrArUrArGrCrArCrUrGrGrUrGrArArUrGdTdT / antisense rCrArUrUrCrArCrCrArGrUrGrCrUrArUrGrArGdGdG”, the normalised inhibition (eCFP-eYFP dual reporter) was 77.1%.

For “sense rArUrUrGrArCrUrUrGrGrCrArArGrGrGrCrUrUdTdT / antisense rArArGrCrCrCrUrUrGrCrCrArArGrUrCrArArUdAdA”, the normalised inhibition (eCFP-eYFP dual reporter) was found to be 58.7%.

“sense rGrGrCrArArGrGrGrCrUrUrArUrUrGrUrUrCrCdTdT / antisense rGrGrArArCrArArUrArArGrCrCrCrUrUrGrCrCdAdA”: the normalised inhibition (eCFP-eYFP dual reporter) came to 79.4%.

“sense rCrUrGrUrCrUrGrCrCrArGrUrArArUrUrArGrUdTdT / antisense rArCrUrArArUrUrArCrUrGrGrCrArGrArCrArGdAdC”: the normalised inhibition (eCFP-eYFP dual reporter) came out at 52.5%.

For the substance “sense rArGrCrCrUrGrArGrCrArCrCrCrGrCrUrUrCrGdTdT / antisense rCrGrArArGrCrGrGrGrUrGrCrUrCrArGrGrCrUdGdG”, the normalised inhibition (eCFP-eYFP dual reporter) is 46.3%.

As for “sense rCrGrGrGrCrUrGrArCrCrUrArGrCrUrGrArArGdTdT / antisense rCrUrUrCrArGrCrUrArGrGrUrCrArGrCrCrCrGdAdA”, the normalised inhibition (eCFP-eYFP dual reporter) amounted to 61.3%.

“sense rUrGrUrCrUrGrCrCrArGrUrArArUrUrArGrUrGdTdT / antisense rCrArCrUrArArUrUrArCrUrGrGrCrArGrArCrAdGdA”: the normalised inhibition (eCFP-eYFP dual reporter) was found to be 51.7%.

In the case of “sense rUrCrCrArGrGrUrUrGrArUrGrArArGrCrUrArAdTdT / antisense rUrUrArGrCrUrUrCrArUrCrArArCrCrUrGrGrAdTdG”, the normalised inhibition (eCFP-eYFP dual reporter) was 112%.

As for “sense rCrArArCrCrArArArArCrCrGrArCrCrArArGrUdTdT / antisense rArCrUrUrGrGrUrCrGrGrUrUrUrUrGrGrUrUrGdCdT”, the normalised inhibition (eCFP-eYFP dual reporter) worked out at 87%.

As to “sense rUrGrArUrArArGrGrGrArGrCrCrUrUrCrArGrAdTdT / antisense rUrCrUrGrArArGrGrCrUrCrCrCrUrUrArUrCrAdTdA”, the normalised inhibition (eCFP-eYFP dual reporter) is 110%.

As to “sense rGrGrUrCrUrGrUrCrUrGrCrCrArGrUrArArUrUdTdT / antisense rArArUrUrArCrUrGrGrCrArGrArCrArGrArCrCdTdG”, the normalised inhibition (eCFP-eYFP dual reporter) turned out to be 74.3%.

Regarding “sense rGrCrUrGrArCrCrUrArGrCrUrGrArArGrArArUdTdT / antisense rArUrUrCrUrUrCrArGrCrUrArGrGrUrCrArGrCdCdC”, the normalised inhibition (eCFP-eYFP dual reporter) stood at 70.1%.

For the substance “sense rUrUrCrArArArCrCrArCrCrGrArArGrArUrCrAdTdT / antisense rUrGrArUrCrUrUrCrGrGrUrGrGrUrUrUrGrArAdTdG”, the normalised inhibition (eCFP-eYFP dual reporter) turned out to be 65.9%.

On to “sense rArCrCrArArGrUrArArUrCrCrArGrUrCrCrCrUdTdT / antisense rArGrGrGrArCrUrGrGrArUrUrArCrUrUrGrGrUdCdG”, for which the normalised inhibition (eCFP-eYFP dual reporter) was 87.3%.

With “sense rGrCrArGrGrUrCrUrGrUrCrUrGrCrCrArGrUrAdTdT / antisense rUrArCrUrGrGrCrArGrArCrArGrArCrCrUrGrCdCdC”, the normalised inhibition (eCFP-eYFP dual reporter) stood at 52.7%.

As for “sense rArCrArUrCrGrArCrGrArArArArGrGrGrGrCrAdTdT / antisense rUrGrCrCrCrCrUrUrUrUrCrGrUrCrGrArUrGrUdTdT”, the normalised inhibition (eCFP-eYFP dual reporter) was determined as 64.5%.

As for “sense rCrUrGrArGrCrArCrCrCrGrCrUrUrCrGrGrGrCdTdT / antisense rGrCrCrCrGrArArGrCrGrGrGrUrGrCrUrCrArGdGdC”, the normalised inhibition (eCFP-eYFP dual reporter) is 51.7%.

In the case of “sense rCrArGrGrUrUrGrArUrGrArArGrCrUrArArUrUdTdT / antisense rArArUrUrArGrCrUrUrCrArUrCrArArCrCrUrGdGdA”, the normalised inhibition (eCFP-eYFP dual reporter) is 96.7%.

Consider “sense rGrGrArArGrCrCrArGrCrArArCrCrArArArArCdTdT / antisense rGrUrUrUrUrGrGrUrUrGrCrUrGrGrCrUrUrCrCdAdG”, for which the normalised inhibition (eCFP-eYFP dual reporter) worked out at 73%.

“sense rCrArUrArGrCrArCrUrGrGrUrGrArArUrGrArCdTdT / antisense rGrUrCrArUrUrCrArCrCrArGrUrGrCrUrArUrGdAdG”: the normalised inhibition (eCFP-eYFP dual reporter) is 80.9%.

As to “sense rUrUrCrGrGrGrCrUrGrArCrCrUrArGrCrUrGrAdTdT / antisense rUrCrArGrCrUrArGrGrUrCrArGrCrCrCrGrArAdGdC”, the normalised inhibition (eCFP-eYFP dual reporter) worked out at 49%.

“sense rArArCrUrGrGrArArGrCrCrArGrCrArArCrCrAdTdT / antisense rUrGrGrUrUrGrCrUrGrGrCrUrUrCrCrArGrUrUdTdT”: the normalised inhibition (eCFP-eYFP dual reporter) stood at 71.8%.

As to “sense rUrArUrCrArCrCrCrArArArCrArUrCrGrArCrGdTdT / antisense rCrGrUrCrGrArUrGrUrUrUrGrGrGrUrGrArUrAdGdA”, the normalised inhibition (eCFP-eYFP dual reporter) was 57%.

For the substance “sense rCrArArArGrArUrCrUrArUrCrArCrCrCrArArAdTdT / antisense rUrUrUrGrGrGrUrGrArUrArGrArUrCrUrUrUrGdTdT”, the normalised inhibition (eCFP-eYFP dual reporter) was determined as 82.8%.

For the substance “sense rGrUrCrUrGrUrCrUrGrCrCrArGrUrArArUrUrAdTdT / antisense rUrArArUrUrArCrUrGrGrCrArGrArCrArGrArCdCdT”, the normalised inhibition (eCFP-eYFP dual reporter) worked out at 91%.

On to “sense rArUrUrUrArArArArCrArArArGrArUrCrUrArUdTdT / antisense rArUrArGrArUrCrUrUrUrGrUrUrUrUrArArArUdGdT”, for which the normalised inhibition (eCFP-eYFP dual reporter) was found to be 65.5%.

Consider “sense rCrArCrCrCrGrCrUrUrCrGrGrGrCrUrGrArCrCdTdT / antisense rGrGrUrCrArGrCrCrCrGrArArGrCrGrGrGrUrGdCdT”, for which the normalised inhibition (eCFP-eYFP dual reporter) was found to be 60%.

“sense rUrUrGrArCrUrUrGrGrCrArArGrGrGrCrUrUrAdTdT / antisense rUrArArGrCrCrCrUrUrGrCrCrArArGrUrCrArAdTdA”: the normalised inhibition (eCFP-eYFP dual reporter) was 61.9%.

“sense rCrArGrCrArGrArGrUrArCrCrCrArUrUrCrArAdTdT / antisense rUrUrGrArArUrGrGrGrUrArCrUrCrUrGrCrUrGdGdA”: the normalised inhibition (eCFP-eYFP dual reporter) was 90%.

On to “sense rCrCrArArArCrArUrCrGrArCrGrArArArArGrGdTdT / antisense rCrCrUrUrUrUrCrGrUrCrGrArUrGrUrUrUrGrGdGdT”, for which the normalised inhibition (eCFP-eYFP dual reporter) is 59.4%.
